Residues, ends and D or L forms follow the SMILES beside them.
Columns and labels:
[1] = system: autologous PHA T cell blasts; assay: Cytotoxicity Assay (51Cr release) of peptide-induced short-term PBMC cultures against autologous targets; assay type: cell-based, human; conditions: for autoreactive response (autocytotoxic, 51Cr release): peptide stimulant 100 ng/ml 4-8 hours
Description: (§1) Peripheral Blood Mononuclear Cells (PBMC) were isolated from 8 HIV seronegative individuals who volunteered as donors for the study. […] PBMC (10^6 /ml) from the each of the donors were incubated in the presence of VHP1 or control peptide at 100 ng/ml for 4-8 hours to produce Effector Cells. Irradiated autologous PBMC without VHP1 stimulation served as controls.
(§2) VHP1 induced short-term cultures of autoreactive T cells (Effector Cells) were assayed for cytotoxic activity against autologous PHA T cell blasts stimulated with 5 μg/ml PHA for 4-5 days at a concentration of 10^4 cells/well in the absence of either control or VHP1 peptide (Target Cells). 1-2×10^6 Target Cells were labeled with […] of ^51 Cr in 0.3 ml of medium for 1 hour at 37° C. Target cells were washed 3× in medium, diluted to 10^5 or 10^4 cells/ml and […] of cell suspension added to each well of a V-bottomed 96-well microtitre plate. Effector Cells were added to the Target Cells at Effector:Target (E:T) ratios from 50:1 to 6.25:1. Cultures were incubated for 4 hours at 37° C. and supernatants were harvested and counted for ^51 Cr release. Percent cytotoxicity is calculated using the formula : […] (experimental release-spontaneous release)/(maximum release-spontaneous release). Spontaneous release and maximum release were determined by incubating target cells in medium or 1.0% Triton ×-100 respectively. Results where calculated as means ± Standard Deviations (SD) of triplicate cultures and a positive result was scored above 20% specific lysis. The cytotoxicity assay was repeated for allogeneic Target cells from donors (Target-1, Target-2 and Target-3) and the percent specific lysis scored at an Effector:Target ratio of 10:1.

[2] = system: allogeneic PHA activated T cell Targets; assay: Cytotoxicity Assay (51Cr release) of VHP1-induced Effectors against allogeneic targets; assay type: cell-based, human
Description: as §1, §2
To establish the MHC specificity of the cytotoxic cells stimulated by VHP1, further Cytotoxicity Assays with allogeneic PHA activated T cell Targets with different MHC phenotypes were then performed. The Effectors were derived from short term cultures of PBMC from donors of either MHC B8 or B35 (trigger+) incubated with VHP1 for 4-8 hours. The Target Cells were from donors with either B8 B35 (trigger+) or B27(Trigger-) MHC phenotype. Target PBMC incubated with radioactive ^51 Cr for one hour before being mixed with Effectors. Effector Cells were mixed with radiolabelled Target Cells and incubated for 4 hours and lysis was measured by release of radioactive ^51 Cr.
The measurement of percent specific lysis by ^51 Cr release at an Effector to Target Ratio of 10:1.

[3] = short term cultures of PBMC from donors positive for B8 or B35 (trigger+)

What does the source list for `CC(C)C[C@H](N)C(=O)N[C@@H](CCC(=O)O)C(=O)N[C@@H](CC(=O)O)C(=O)N[C@@H](CCCNC(=N)N)C(=O)N[C@@H](CCCNC(=N)N)C(=O)N[C@@H](C)C(=O)N[C@@H](C)C(=O)N[C@H](C(=O)N[C@@H](CC(=O)O)C(=O)N[C@H](C(=O)N[C@H](C(=O)N[C@@H](CS)C(=O)N[C@@H](CCCNC(=N)N)C(=O)N[C@@H](C)C(=O)O)C(C)C)[C@@H](C)O)C(C)C` [Control, NH2 LeuGluAspArgArgAlaAlaValAspThrValCysArgAlaCOOH] (H-LEDRRAAVDTVCRA-OH)?
autoreactive response (autocytotoxic, 51Cr release) ([1]; PBMC of donor eight (Trigger+)): - (a positive result was scored above 20% specific lysis); autoreactive response (autocytotoxic, 51Cr release) ([1]; PBMC of donor five (Trigger+)): - (a positive result was scored above 20% specific lysis); autoreactive response (autocytotoxic, 51Cr release) ([1]; PBMC of donor four (Trigger-)): - (a positive result was scored above 20% specific lysis); autoreactive response (autocytotoxic, 51Cr release) ([1]; PBMC of donor nine (Trigger-)): - (a positive result was scored above 20% specific lysis); autoreactive response (autocytotoxic, 51Cr release) ([1]; PBMC of donor one (Trigger-)): - (a positive result was scored above 20% specific lysis); autoreactive response (autocytotoxic, 51Cr release) ([1]; PBMC of donor seven (Trigger+)): - (a positive result was scored above 20% specific lysis); autoreactive response (autocytotoxic, 51Cr release) ([1]; PBMC of donor six (Trigger+)): - (a positive result was scored above 20% specific lysis); autoreactive response (autocytotoxic, 51Cr release) ([1]; PBMC of donor two (Trigger-)): - (a positive result was scored above 20% specific lysis); autocytotoxic responses against activated autologous T cell targets [1, 3]: did not produce significant levels

How did the “autoreactive response (autocytotoxic, 51Cr release)” value (“autoreactive response” for short) ([1]; PBMC of donor eight (Trigger+)) turn out when `CC(C)[C@H](NC(=O)[C@H](CCCNC(=N)N)NC(=O)[C@H](CCCNC(=N)N)NC(=O)[C@H](CCCCN)NC(=O)[C@H](C)NC(=O)[C@H](CCCCN)NC(=O)[C@@H](N)[C@@H](C)O)C(=O)N[C@H](C(=O)N[C@@H](CCC(=O)O)C(=O)N[C@@H](CCCNC(=N)N)C(=O)N[C@@H](CCC(=O)O)C(=O)N[C@@H](CCCCN)C(=O)N[C@@H](CCCNC(=N)N)C(=O)O)C(C)C` [VHP1, NH2 ThrLysAlaLysArgArgValValGluArgGluLysArgCOOH] (H-TKAKRRVVEREKR-OH) was run?
The value was “+ (a positive result was scored above 20% specific lysis)”.

What about the “autoreactive response” value ([1]; PBMC of donor five (Trigger+)) of the same compound?
The value was “+ (a positive result was scored above 20% specific lysis)”.

What about the “autoreactive response” value ([1]; PBMC of donor four (Trigger-)) of the same compound?
Its value is “- (a positive result was scored above 20% specific lysis)”.

And the “autoreactive response” value ([1]; PBMC of donor nine (Trigger-))?
Its value is “- (a positive result was scored above 20% specific lysis)”.

What about the “autoreactive response” value ([1]; PBMC of donor one (Trigger-)) of the same compound?
Its value is “- (a positive result was scored above 20% specific lysis)”.

And the “autoreactive response” value ([1]; PBMC of donor seven (Trigger+))?
Its value is “+ (a positive result was scored above 20% specific lysis)”.

What about the “autoreactive response” value ([1]; PBMC of donor six (Trigger+)) of the same compound?
The value was “+ (a positive result was scored above 20% specific lysis)”.

And the “autoreactive response” value ([1]; PBMC of donor two (Trigger-))?
Its value is “- (a positive result was scored above 20% specific lysis)”.

And the “autocytotoxic responses against activated autologous T cell targets” value ([1]; short term cultures of PBMC from donors negative for B8 or B35 (trigger-))?
The value was “did not produce significant levels”.

What about the “autocytotoxic responses against activated autologous T cell targets” value [1, 3] of the same compound?
Its value is “significant autocytoxic responses”.

And the “percent specific lysis by 51Cr release” value ([2]; VHP1-induced Effectors JMC-B8, Target1-B8, Effector to Target Ratio 10:1)?
The value was 30%.

What about the “percent specific lysis by 51Cr release” value ([2]; VHP1-induced Effectors JMC-B8, Target2-B35, Effector to Target Ratio 10:1) of the same compound?
Its value is 30%.

What about the “percent specific lysis by 51Cr release” value ([2]; VHP1-induced Effectors JMC-B8, Target3-B27, Effector to Target Ratio 10:1) of the same compound?
The value was 7%.

And the “percent specific lysis by 51Cr release” value ([2]; VHP1-induced Effectors SW-B35, Target1-B8, Effector to Target Ratio 10:1)?
Its value is 9%.

And the “percent specific lysis by 51Cr release” value ([2]; VHP1-induced Effectors SW-B35, Target2-B35, Effector to Target Ratio 10:1)?
The value was 10%.

And the “percent specific lysis by 51Cr release” value ([2]; VHP1-induced Effectors SW-B35, Target3-B27, Effector to Target Ratio 10:1)?
The value was 2%.

What about the “percent specific lysis by 51Cr release” value ([2]; VHP1-induced Effectors WW-B35, Target1-B8, Effector to Target Ratio 10:1) of the same compound?
The value was 30%.

And the “percent specific lysis by 51Cr release” value ([2]; VHP1-induced Effectors WW-B35, Target2-B35, Effector to Target Ratio 10:1)?
The value was 32%.

And the “percent specific lysis by 51Cr release” value ([2]; VHP1-induced Effectors WW-B35, Target3-B27, Effector to Target Ratio 10:1)?
Its value is 14%.
